SMILES strings stand for the structures.

This experiment relates to alpha2 Adrenoceptors (Alpha2AR). Briefly: Antagonist activity on alpha2 adrenoceptors in rat vas deferens in vitro (electrically evoked contractions). Conditions: isolated rat vas deferens, field stimulation; antagonist added at least five minutes before alpha2AR agonist. As for the experimental part: Antagonist activity on alpha2 Adrenoceptors (Alpha2AR) in rat vas deferens in vitro
Rats were killed by CO2-suffocation. Vas deferentia were dissected out and both prostatic halves were removed to tissue chambers containing Krebs-solution of the following composition (mM): NaCl 118, KCl 4.7, CaCl22.5, KH2PO41.2, MgSO40.6, NaHCO325, glucose 11.1, aerated by 5% carbogen, temperature 37° C., pH 7.4. Propranolol […] and desipramine […] were added to prevent the possible effects on […] receptors and to prevent re-uptake of released norepinephrine, respectively. Preparations were tied to the bottom hooks of the incubation chambers and then to isometric force-displacement transducers above. Electrical stimulation was started after the equilibrium period (5 minutes under a resting tension of 0.5 g) by introducing field stimulation with the following parameters: twin-pulses, voltage 70 V, frequency 0.2 Hz, delay 5 ms, duration 2 ms. […] Inhibition of the electrically evoked contractions was measured as the response to alpha2AR agonists. Antagonist was administered into the incubation medium at least five minutes before agonist. Means ± SEM of percentage inhibition were calculated in the absence and in the presence of antagonist and expressed as dose-response curves. In order to express the antagonist potency, the pA2-value was calculated.
In the case of `c1ccc(C2CC(Cc3c[nH]cn3)c3ccccc32)cc1` (stereo not shown) [Compound 1, 4-(3-Phenylindan-1-ylmethyl)-1H-imidazole], the “vas deferens Alpha2 antagonistic activity, pA2” value is “pA2 = 7.0”.
In the case of `COc1cc2c(cc1OC)C(c1ccccc1)CC2Cc1c[nH]cn1` (stereo not shown) [Compound 2, 4-(5,6-Dimethoxy-3-phenylindan-1-ylmethyl)-1H-imidazole], the “vas deferens Alpha2 antagonistic activity, pA2” value was “pA2 = 6.0”.
For `Oc1cc2c(cc1O)C(c1ccccc1)CC2Cc1c[nH]cn1` (stereo not shown) [Compound 3, 1-(1H-Imidazol-4-ylmethyl)-3-phenylindan-5,6-diol] the value was “pA2 = 5.6”; for `Oc1ccc2c(c1)C(Cc1c[nH]cn1)CC2c1ccccc1` (stereo not shown) [Compound 4, 3-(1H-imidazol-4-ylmethyl)-1-phenylindan-5-ol], “pA2 = 6.9”; for `COc1ccc(C2CC(Cc3c[nH]cn3)c3cc(OC)ccc32)cc1` (stereo not shown) [Compound 5, 4-[6-Methoxy-3-(4-methoxyphenyl)indan-1-ylmethyl]-1H-imidazole], “pA2 = 6.3”.
Consider `Oc1ccc(C2CC(Cc3c[nH]cn3)c3cc(O)ccc32)cc1` (stereo not shown) [Compound 6, 1-(4-Hydroxyphenyl)-3-(1H-imidazol-4-ylmethyl)indan-5-ol], for which the “vas deferens Alpha2 antagonistic activity, pA2” value is recorded as “pA2 = 6.6”.
`Fc1ccc(C2CC(Cc3c[nH]cn3)c3ccccc32)cc1` (stereo not shown) [Compound 7, 4-[3-(4-Fluorophenyl)indan-1-ylmethyl]-1H-imidazole]: the “vas deferens Alpha2 antagonistic activity, pA2” value is “pA2 = 7.6”.
For `Oc1ccc2c(c1)C(Cc1c[nH]cn1)CC2c1ccc(F)cc1` (stereo not shown) [Compound 8, 1-(4-Fluorophenyl)-3-(1H-imidazol-4-ylmethyl)indan-5-ol] the value was “pA2 = 6.7”; for `Fc1cccc(C2CC(Cc3c[nH]cn3)c3ccccc32)c1` (stereo not shown) [Compound 9, 4-[3-(3-Fluorophenyl)indan-1-ylmethyl]-1H-imidazole], “pA2 = 6.2”.
Turning to `Fc1ccccc1C1CC(Cc2c[nH]cn2)c2ccccc21` (stereo not shown) [Compound 10, 4-[3-(2-Fluorophenyl)indan-1-ylmethyl]-1H-imidazole], the “vas deferens Alpha2 antagonistic activity, pA2” value is recorded as “pA2 = 6.2”.
For `Fc1ccc(C2CC(Cc3c[nH]cn3)c3ccccc32)cc1F` (stereo not shown) [Compound 11, 4-[3-(3,4-Difluorophenyl)indan-1-ylmethyl]-1H-imidazole] the value was “pA2 = 6.2”.
`c1ccc(C2OC(Cc3c[nH]cn3)c3ccccc32)cc1` (stereo not shown) [Compound 12, 4-(3-Phenyl-1,3-dihydroisobenzofuran-1-ylmethyl)-1H-imidazole]: the “vas deferens Alpha2 antagonistic activity, pA2” value was “pA2 = 6.3”.
To `COc1ccc2c(c1)C(Cc1c[nH]cn1)C(c1ccccc1)C2` (stereo not shown) [Compound 13, 4-[(2,3-Dihydro-6-methoxy-2-phenyl-1H-inden-1-yl)methyl]-1H-imidazole] belongs “pA2 = 5.6”; to `Oc1ccc2c(c1)C(Cc1c[nH]cn1)C(c1ccccc1)C2` (stereo not shown) [Compound 14, 3-(1H-Imidazol-4-ylmethyl)-2-phenylindan-5-ol], “pA2 = 5.5”.
As for `Fc1ccc(C2CC(Cc3c[nH]cn3)c3cc(F)ccc32)cc1` (stereo not shown) [Compound 15, 4-[6-Fluoro-3-(4-fluorophenyl)indan-1-ylmethyl]-1H-imidazole], the “vas deferens Alpha2 antagonistic activity, pA2” value is listed as “pA2 = 6.2”.
`c1ccc(C2Cc3ccccc3C2Cc2c[nH]cn2)cc1` (stereo not shown) [Compound 16, 4-[(2,3-Dihydro-2-phenyl-1H-inden-1-yl)methyl]-1H-imidazole]: the “vas deferens Alpha2 antagonistic activity, pA2” value is listed as “pA2 = 6.5”.

The values are drawn from patent US6388090B2, “Imidazole derivatives” (Orion Corporation, priority 2000, dated 2002).
